Experimental data from PubChem BioAssay (NCI).
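Where inhibition never reached the appropriate level, the endpoint shown equals the highest concentration tested. Otherwise, values were interpolated linearly from a five-concentration, 48-hour dose response in 96-well plates. TGI denotes the concentration required for complete inhibition of growth.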

Tests used:
Experiment in all cases: NCI-60 cell line screen, 48 h
[1] = system: EKVX NSCLC
[2] = system: HCC-2998 colon
[3] = system: HL-60(TB) leukemia
[4] = system: HT29 colon
[5] = system: IGROV1 ovarian
[6] = system: KM12 colon
[7] = system: MCF7 breast
[8] = system: PC-3 prostate
[9] = system: SF-268 CNS
[10] = system: SK-MEL-28 melanoma
[11] = system: SNB-75 CNS
[12] = system: UACC-257 melanoma

| Structure (SMILES) | TGI [1] [µM] | TGI [2] [µM] | TGI [3] [µM] | TGI [4] [µM] | TGI [5] [µM] | TGI [6] [µM] | TGI [7] [µM] | TGI [8] [µM] | TGI [9] [µM] | TGI [10] [µM] | TGI [11] [µM] | TGI [12] [µM] |
| --- | --- | --- | --- | --- | --- | --- | --- | --- | --- | --- | --- | --- |
| Cc1cc(=O)[nH]c2cc(NC(=O)C(C)NC(=O)C(C)NC(=O)C(C)NC(=O)OC(C)(C)C)ccc12 (stereo not drawn) | > 15 | > 15 | > 15 | > 15 | > 15 | > 15 | > 15 | > 15 | > 15 | > 15 | > 15 | > 15 |
| Cc1ccc(C(=O)Nc2ccc(S(=O)(=O)O)c3cc(S(=O)(=O)O)cc(S(=O)(=O)O)c23)cc1NC(=O)c1cccc(NC(=O)Nc2cccc(C(=O)Nc3cc(C(=O)Nc4ccc(S(=O)(=O)O)c5cc(S(=O)(=O)O)cc(S(=O)(=O)O)c45)ccc3C)c2)c1 | > 100 | > 100 | > 100 | > 100 | > 100 | > 100 | > 100 | > 100 | > 100 | > 100 | > 100 | > 100 |
| COc1cc(/C=C2\C(=O)N(c3cccc(NC(C)=O)c3)C(c3ccccc3)S2(=O)=O)cc(OC)c1OC (stereo not drawn) | > 100 | > 100 | 44.5 | > 100 | > 100 | > 100 | > 100 | > 100 | – | > 100 | > 100 | > 100 |
| CC(C#N)(NO)C(C)(C#N)NO (stereo not drawn) | > 100 | > 100 | > 100 | > 100 | > 100 | > 100 | > 100 | > 100 | > 100 | > 100 | > 100 | > 100 |
| Cc1cn(S(=O)(=O)c2ccccc2)c2c(OCc3ccccc3)cc([N+](=O)[O-])cc12 | > 100 | > 100 | > 100 | > 100 | > 100 | > 100 | > 100 | > 100 | > 100 | > 100 | > 100 | > 100 |
| Cc1[nH]c(=O)nc(N/N=C/c2c3ccccc3c(Cl)c3ccccc23)c1C(=O)Nc1ccc(Cl)cc1 | – | > 100 | 44.7 | > 100 | > 100 | – | > 100 | > 100 | > 100 | > 100 | > 100 | > 100 |
| O=C(CCCc1cccc2[nH]c3c(c12)CN(Cc1ccccc1)CC3)c1ccc(F)cc1 | > 100 | 38.5 | 10.3 | > 45.8 | > 100 | > 100 | > 100 | > 100 | > 100 | > 100 | > 100 | > 100 |
| O=C1CCCC2=C1CC1=C(CCCC1=O)N2c1ccc(Cl)cc1 | > 100 | > 100 | > 100 | > 100 | > 100 | > 100 | > 100 | > 100 | > 100 | > 100 | > 100 | > 100 |
| CCOP(=O)(OCC)C(c1ccc(F)cc1)N(C(=O)NC(F)(F)F)c1ccc(F)cc1 (stereo not drawn) | > 100 | > 100 | > 100 | > 100 | > 100 | > 100 | > 100 | > 100 | > 100 | > 100 | > 100 | > 100 |
| COc1c(C(=O)/C(=N/Nc2ccc(C(=O)O)cc2)C(C)=O)c(O)cc2occc12 | > 100 | > 100 | > 100 | > 100 | > 100 | > 100 | > 100 | > 100 | > 100 | > 100 | > 100 | > 100 |
| CN1C/C(=C\c2cccs2)C2=NN(c3ccccc3)C(c3cccs3)C2C1 (stereo not drawn) | > 100 | > 100 | 4.45 | 22.4 | > 25.5 | > 100 | > 100 | > 100 | > 40.6 | > 100 | – | > 100 |
| O=C(Nc1ccccc1C(=O)NCc1ccccc1)/C(=C/c1ccccc1O)NC(=O)c1ccccc1 | > 100 | > 100 | > 100 | > 100 | > 100 | > 100 | > 100 | > 100 | > 100 | > 100 | 63.3 | > 100 |
| CCOC(CBr)OC1C(=O)OCC1(C)C (stereo not drawn) | > 100 | > 100 | > 100 | > 100 | > 100 | > 100 | > 100 | > 100 | > 100 | > 100 | > 100 | > 100 |
| COc1ccc(SCc2cc(OC)ccc2OC)cc1 | > 100 | 37 | > 100 | > 100 | > 100 | > 100 | > 100 | > 100 | > 100 | > 100 | > 52.8 | > 100 |
| COc1ccc2c(c1)/C(=C\c1c(Cl)nc3n1CCS3)C(=O)N2 | 77 | 8.31 | 17.2 | 16.3 | > 100 | 23.2 | 48.5 | 20 | > 100 | > 100 | 36.5 | 25.8 |
| CC(=O)C1=C(C)N(c2ccccc2)C2(O)C3=C(C(=O)c4ccccc4C3=O)C(O)=CC12Cl (stereo not drawn) | > 100 | 25.9 | 49 | 8.45 | 8.25 | 24.6 | 39.9 | 46.5 | 60.6 | 23.6 | 16.2 | 19.3 |
